Measured values: ChEMBL document CHEMBL5335792, “Chemical exploration of TGR5 functional hot-spots: Synthesis and structure-activity relationships of C7- and C23-Substituted cholic acid derivatives” (Eur J Med Chem, 2023)

Assay: physchem
Conditions: 0.15 M sodium salt

C[C@H](CCC(=O)O)[C@H]1CC[C@H]2[C@@H]3[C@H](O)C[C@@H]4C[C@H](O)CC[C@]4(C)[C@H]3C[C@H](O)[C@]12C [CHOLIC ACID]
solubility: 12 mM
